Measured values reported in patent US12569484B2, “Use of phosphodiesterase 5 inhibitor in preparation of medicament for resisting fibrotic diseases” (SHENZHEN HANHUI PHARMACEUTICAL TECHNOLOGY CO., LTD., priority 2019, dated 2026).

Test system: idiopathic pulmonary fibrosis model rats
Assay: Bleomycin-induced idiopathic pulmonary fibrosis model
Assay type: in vivo, male SD rats
Settings: IPF rats; for degree of pulmonary fibrosis in the left lung (Ashcroft score): oral once a day 14 days
Method: 48 male SD rats were randomly divided into 6 groups according to their body weights, with 8 rats in each group: a sham operation group (Sham), a model group, a nintedanib-50 mg/kg group (BIBF-50 mg/kg), a tadalafil-5 mg/kg group, a tadalafil-20 mg/kg group, and a sildenafil-20 mg/kg group. All the operations involved in this experiment were implemented under the guiding principle of KCI animal experiment operation SOP. After the animals were purchased, they were fed adaptively for 3-7 days before modeling. After weighing, the animals were anesthetized with isoflurane inhalation. After it was confirmed that the animals were anesthetized, the neck was sterilized, the skin of the neck was cut open, a main trachea was exposed by blunt dissection of muscle, a small incision was made between tracheal rings, a PE-20 tube was inserted into a left main bronchus, bleomycin (dosage: 3 mg/kg, volume: 1.0 ml/kg) was directly injected, and the trachea and skin were sutured. After the operation was completed, the animals were put in an electric blanket at 37° C. to keep them warm until they fully woke up, and the animals were returned into feeding cages for normal feeding after it was confirmed that they could eat and drink freely. • (i) sham operation group and model group: the mice were given normal saline by intragastric administration according to their body weights at a dosage of 1 ml·100 g^-1·d^-1; • (ii) nintedanib-50 mg/kg group (BIBF-50 mg/kg): BIBF was formulated into a 10 mg/ml solution with 0.5% sodium carboxymethyl cellulose, and administrated intragastrically at a dosage of 50 mg·kg^-1·d^-1; • (iii) tadalafil-5 mg/kg group: tadalafil was diluted into a 1 mg/ml solution with 0.5% sodium carboxymethylcellulose, and administrated intragastrically at a dosage of 5 mg·kg^-1·d^-1; • (iv) tadalafil-20 mg/kg group: tadalafil was diluted into a 4 mg/ml solution with 0.5% sodium carboxymethylcellulose, and administrated intragastrically at a dosage of 20 mg·kg^-1·d^-1; • (v) sildenafil-20 mg/kg group: sildenafil was diluted into a 4 mg/ml solution with 0.5% sodium carboxymethylcellulose, and administrated intragastrically at a dosage of 20 mg·kg^-1·d^-1, and • the rats in each group were administrated intragastrically once a day for 14 days in total on the day of modeling. • (1) according to an interspecific dosage conversion method currently adopted by FDA, USA, the conversion coefficient of rats and human was 0.162. Therefore, according to the dosage and time of intragastric administration of tadalafil in the mice in this example, it was inferred that the oral dosage of human was 0.81-3.24 mg·kg^-1·d^-1, and the administration time was 14 days; and according to the dosage and time of intragastric administration of sildenafil in the mice in this example, it was inferred that the oral dosage of human was 3.24 mg·kg^-1·d^-1, and the administration time was 14 days. • (2) according to dosage conversion among different routes of administration in pharmacological experimental methodology, a dosage ratio of intramuscular injection and intraperitoneal injection to oral administration was about 0.3-0.4, so it was inferred that the injection dosage of tadalafil in human was 0.243-1.296 ml·kg^-1·d^-1, and the administration time was 14 days (medicament concentration: 1 mg/ml); and the injection dosage of sildenafil in human was 0.972-1.296 ml·kg^-1·d^-1, and the administration time was 14 days (medicament concentration: 1 mg/ml). 2.4 Experimental Indexes and Determining Methods 2.4.1 Weight and Volume of Left Lung of IPF Rats After 14 days of continuous administration, all animals were euthanized by intraperitoneal injection of a pentobarbital sodium anesthetic (100 mg/kg) to the animals in each group according to a KCI standard operating procedure for animal euthanasia. All animals were perfused with low-temperature PBS systematically, and then perfused systematically with formalin for fixation. […]

[1] = 14 days intragastric, BIBF 50 mg/kg, tadalafil 5 and 20 mg/kg, sildenafil 20 mg/kg
[2] = BIBF 50 mg/kg, tadalafil 5 and 20 mg/kg, sildenafil 20 mg/kg, vs model group, p<0.05

| SMILES | alveolar tissue structure in the pulmonary fibrosis lesion of the left lung (HE staining) [1] | alveolar tissue structure in the pulmonary fibrosis lesion of the left lung (Masson Trichrom staining) [1] | pulmonary fibrosis lesion and lesion range in the left lung (H&E and Masson Trichrom staining) (14 days intragastric, BIBF 50 mg/kg, tadalafil 5 and 20 mg/kg, sildenafil 20 mg/kg, vs model group) | scores of injury degrees of bronchioles and pulmonary arterioles in the center and margin of the pulmonary fibrosis lesion (14 days intragastric, BIBF 50 mg/kg, tadalafil 5 and 20 mg/kg, sildenafil 20 mg/kg, vs model group, p<0.05) | percentage of the pulmonary fibrosis degree (Ashcroft score of 3 as a boundary) (14 days intragastric, vs model group, p<0.05) | degree of pulmonary fibrosis in the left lung (Ashcroft score) [2] |
| --- | --- | --- | --- | --- | --- | --- |
| COC(=O)c1ccc2c(c1)NC(=O)/C2=C(\Nc1ccc(N(C)C(=O)CN2CCN(C)CC2)cc1)c1ccccc1 [BIBF, nintedanib] | some alveolar structures in the fibrosis lesion were still damaged | some alveolar structures disappeared in the fibrosis lesion | no significant difference | significantly decreased | significantly decreased | significantly improved |
| CCCc1nn(C)c2c(=O)[nH]c(-c3cc(S(=O)(=O)N4CCN(C)CC4)ccc3OCC)nc12 [sildenafil] | the alveolar structure in the fibrosis lesion was preserved | most of the alveolar structures in the fibrosis lesion were preserved | – | – | – | significantly inhibit |
